Reference: patent US7015312B1, “Antibodies to the protein product encoded by ORF3 of the TRP-1 gene and compositions and kits thereof” (The United States of America as represented by the …, priority 1996, dated 2006)
Entries after “also recorded” stand apart in the source; their conditions may differ.

How the values were obtained:
Assay type in all cases: cell-based, human
TIL586 [1] = test: Cytotoxic lysis of peptide-pulsed target cells by TIL586, 4-h chromium release assay; details: for % Specific lysis (E:T 20:1): 586EBV cells pulsed with peptide 1 μg/ml, TIL586 E:T 20:1, 4-h chromium release; for Sensitization of peptide-pulsed 586EBV B cells for lysis by TIL586 (in words): peptide pulsed onto 586EBV B cells
Method: 586EBV B cells were incubated with ORF3P (pep) (—▴—), with an irrelevant peptide (ipep) (—●—) without peptide (—Δ—) and T2 cells pulsed with ORF3P (—∘—) as marked. After incubation, TIL586 was added and mixed with the target cells. Cytolytic activity of TIL586 was measured in a 4 h chromium release assay.
586EBV cells were separately incubated with serial dilutions of ORF3P (pep) (—▴—) or irrelevant peptides (ipep) (—●—) and T2 cells with the ORF3P (peptide (—∘—) for 90 min. The cytolytic activity of TIL586 was evaluated in a 4h […] release assay at an effector: target (E:T) ratio of 40:1.
(§1) Cytolytic assays was done as previously described (Kawakami, Y et al., 1994, Proc. Natl. Acad. Sci. USA 91:6458–62). Briefly, the target cells were labeled with chromium for 90 min. After washing three times, the cells were incubated with peptides at a concentration of 1 μg/ml for 90 min. The cells were washed again, counted, and then mixed with TIL586 at the indicated ratio of effector : targets (E:T). Chromium release was measured after 4 h incubation. The peptides were synthesized by a solid-phase method using a peptide synthesizer (Model AMS 422, Gibson Co., Inc., Worthington, Ohio). Some peptides were purified by HPLC and had greater than 98% in purity. For titration of the ORF3P peptide recognized by TIL586, 586EBV B cells were incubated with various concentrations of the purified ORF3P peptide. Percentage of specific lysis was determined from the equation (A-B)/(C-B)×100 where A is lysis of 586EBV B cells by TIL586 in the presence of a peptide, B is spontaneous release from 586EBV B cells in presence of the same peptide but in the absence of effector cells, and C is the maximum chromium release.

TIL586 [2] = test: GM-CSF release by TIL586 co-incubated with peptide-pulsed target cells
TIL586 [3] = test: as above; set-up: GM-CSF release: unit not given here; details: for GM-CSF release: 586EBV cells pulsed with peptide 1 μg/ml for 90 min, co-incubated with TIL586, TIL586 alone subtracted; for Recognition by TIL586 / stimulation of GM-CSF release (in words): peptide pulsed onto 586EBV B cells (A31+)
Method: Transfection and cytokine assays were performed as FIG. 1A and b. 586mel and 397mel were included as positive and negative controls for the reactivity of TIL586. The ORF3P peptide was incubated with 586EBV (A31+) and T2 (non-A31) cells at a concentration of 1 μg/ml for 90 min.
The following chemicals and reagents were purchased from the sources indicated: RPMI 1640, AIM-V media, Lipofectamine, G418 (GIBCO BRL, Gaithersberg, Md.); the eukaryotic expression vector pCR3 (Invitrogen, San Diego, […] containing 120 IU/ml of IL-2. TIL586 was added and incubated for additional 18–24 h, 100 μl of supernatant was collected for GM-CSF assay.

[4] = test system: T cell clones from TIL586; test: GM-CSF release by T cell clones generated from the TIL586 cell line; details: six T cell clones, GM-CSF assay, 18–24 h
Method: FIGS. 6A–6D show recognition of the antigenic peptide T cell clones from the TIL586 cell line. T cell clones were generated from the TIL586 cell line. 586EBV B cells were pulsed with the ORF3P peptide or irrelevant peptide. T cell clone or TIL586 cells were added and coincubated. For 586 mel, 397 mel/A31^+ tumors and melanocyte NHEM680 cells, 1×10^5 cells per well were incubated with 1×10^5 cells clones, TIL586-C1 (FIG. 6A), TIL586-C4 (FIG. 6B) and TIL586-C6 (FIG. 6C) or TIL586 (FIG. 6D) for 18–24 h, respectively. GM-CSF assay was performed as described in FIG. 1B.
To address the question of whether TIL586 recognized a naturally processed peptide which is similar or identical to the ORF3P peptide on the tumor cells, the ability of the ORF3P peptide pulsed 586EBV B cells to inhibit lysis of ^51Cr-labeled 586mel in a cold-target inhibition assay was examined. […] To further test if T cell clones can recognize both the ORF3P peptide pulsed 586EBV B cells and tumor cell lines, T cell clones were generated from the TIL586 cell line by limiting dilution (1 cell/well in 96-well round bottom microplate) and further expanded in culture. […] T cell clones were further expanded in AIM-V medium containing 6000 IU/ml IL-2. […]

TIL1200 = test: Cold target inhibition of lysis of 51Cr-labeled 624mel by TIL1200; details: TIL1200 (gp100, HLA-A2), E:T 30:1, 4 h
Method: “Cold” and “hot” target cells were mixed at the indicated ratios. TIL1200 was added at an effector: hot target (E:T) ratio of 30:1. Cytolytic activity of TIL1200 was evaluated in a 4-h ^51Cr release assay.
as §1, with “release. […]” for “release.”

TIL586 [5] = test: Cold target inhibition of lysis of 51Cr-labeled 586mel by TIL586; details: TIL586, E:T 20:1, 4 h
Method: 586EBV cells pulsed with ORF3P (—▴—), with irrelevant peptide (—Δ—) and T2 cells loaded with ORF3P (—□—) were used as “cold” target cells. After washing, “hot” and “cold” target cells were counted again and mixed at the “cold”/“hot” ratio of 1:1, 5:1, 10:1, and 20:1. TIL586 was added at an effector; “hot” target (E:T) ratio of 20:1. Chromium release was measured after 4 h incubation.
as §1, with “For titration of the ORF3P peptide recognized by TIL586, 586EBV B cells were incubated with various concentrations of the purified ORF3P peptide.” left out, “release. […]” for “release.”

[6] = 586EBV cells, TIL586 E:T 40:1, 4 h

| Sequence | % Specific lysis (E:T 20:1) (TIL586 [1]) [%] | GM-CSF release (TIL586 [3]) | Recognition by TIL586 / stimulation of GM-CSF release (in words) (TIL586 [3]) | further results |
| --- | --- | --- | --- | --- |
| AACDQRVLIVR (listed as Homo sapiens) [synthetic peptide from ORF1 (gp75)] | <10 | 250 | very weakly induced GM-CSF release | Sensitization of target cells for lysis by TIL586 at high peptide concentration (TIL586 [1]; 10 μg/ml of peptide, data not shown): did not sensitize the target cells for lysis; Sensitization of peptide-pulsed 586EBV B cells for lysis by TIL586 (in words) (TIL586 [1]): failed to sensitive peptide-loaded 586EBV B for lysis by TIL586; Peptide concentration needed for weak stimulation of cytokine release from TIL586 (TIL586 [2]; incubated with 586EBV B cells): > 1 µg/mL |
| ACDQRVLIVR (listed as Homo sapiens) [synthetic peptide from ORF1 (gp75)] | <10 | <50 | – | – |
| ACDQRVLIVRR (listed as Homo sapiens) [synthetic peptide from ORF1 (gp75)] | <10 | <50 | – | – |
| AISQDTTVGR (listed as Homo sapiens) [synthetic peptide from ORF1 (gp75)] | <10 | <50 | – | – |
| CGTCRPGWR (listed as Homo sapiens) [synthetic peptide from ORF1 (gp75)] | <10 | <50 | – | – |
| DDREVWPLR (listed as Homo sapiens) [synthetic peptide from ORF1 (gp75)] | <10 | <50 | – | – |
| DQRVLIVRR (listed as Homo sapiens) [synthetic peptide from ORF1 (gp75)] | <10 | <50 | – | – |
| ISLQRQFLR (listed as Homo sapiens) | – | – | still recognized by TIL586 at comparable concentrations to that of the wild-type peptide | – |
| IVRRNLLDLSK (listed as Homo sapiens) [synthetic peptide from ORF1 (gp75)] | <10 | <50 | – | – |
| LSKEEKNHFVR (listed as Homo sapiens) [synthetic peptide from ORF1 (gp75)] | <10 | <50 | – | – |
| LWDVPSWLER (listed as Homo sapiens) | <10 | <50 | – | – |
| MALQRQFLR (listed as Homo sapiens) [modified ORF3P, substitution Ser with Ala at position 2] | – | – | recognized | – |
| MLLQRQFLR (listed as Homo sapiens) [modified ORF3P, anchor residue substitution] | – | – | did not recognize | – |
| MRLQRQFLR (listed as Homo sapiens) [modified ORF3P, anchor residue substitution] | – | – | did not recognize | – |
| MSLQRLFLR (listed as Homo sapiens) [modified ORF3P, anchor residue substitution] | – | – | did not recognize | – |
| MSLQRQFLE (listed as Homo sapiens) [modified ORF3P, anchor residue substitution] | – | – | did not recognize | – |
| MSLQRQFLK (listed as Homo sapiens) [modified ORF3P, anchor residue substitution] | – | – | did not recognize | – |
| MSLQRQFLR (listed as Homo sapiens) [ORF3P, antigenic nonamer peptide derived from ORF3 of the gp75 (TRP-1) gene] | – | – | strongly recognized by TIL586; also recorded: significantly increased | Recognition of peptide-pulsed 586EBV B cells by T cell clones from TIL586 [4]: capable of recognizing; also recorded: recognized by six T cell clones derived from TIL586; Inhibition of lysis of 51Cr-labeled 624mel by cold peptide-pulsed 586EBV B cells (TIL1200): did not inhibit; Peptide concentration at which lytic activity was still detected (TIL586 [1]; [6]): 1 nM; Peptide concentration giving maximal sensitization for lysis (TIL586 [1]; [6]): 100 nM; Lysis by TIL586 of T2 cells pulsed with peptide (TIL586 [1]; T2 (non-A31) cells pulsed with peptide): failed to lyse; Sensitization of peptide-pulsed 586EBV B cells for lysis by TIL586 (in words) (TIL586 [1]): lysed; Inhibition of lysis of 51Cr-labeled 586mel by cold peptide-pulsed 586EBV B cells (TIL586 [5]): Significant inhibition; Recognition by TIL586 / GM-CSF release, peptide on 1510EBV cells (TIL586 [2]; peptide pulsed onto allogeneic 1510EBV B (A31+) cells): observed only when the peptide was pulsed onto autologous 586EBV B cells and 1510EBV B (A31+) cells; also recorded: significantly increased; Recognition by TIL586 / GM-CSF release, peptide on T2 cells (TIL586 [3]; peptide loaded onto T2 (non-HLA-A31) cells): not when peptide was loaded onto T2 (non-HLA-A31) cells |
| MSLQRQFLRT (listed as Homo sapiens) [peptide from ORF3] | – | – | did not recognize | – |
| SGHNCGTCR (listed as Homo sapiens) [synthetic peptide from ORF1 (gp75)] | <10 | <50 | – | – |
| SLQRQFLRT (listed as Homo sapiens) [peptide from ORF3] | – | – | did not recognize | – |
| VWPLRFFNR (listed as Homo sapiens) [synthetic peptide from ORF1 (gp75)] | <10 | <50 | – | – |
